Test results taken from ChEMBL document CHEMBL1142200, “Efficacy of delayed treatment with ST-246 given orally against systemic orthopoxvirus infections in mice” (Antimicrob Agents Chemother, 2007).
The source made the active and inactive calls.

Tests used:
Mus musculus [1] = test: Effect on mortality of A/NCr mouse inoculated with ectromelia virus at 100 mg/kg after 48 hrs of viral infection, ip once daily for 10 days relative control; format: functional; conditions: route intraperitoneal
Mus musculus [2] = test: Effect on mortality of BALB/c mouse inoculated with Cowpox virus BR at 15 mg/kg after 24 hrs of viral infection, ip for 5 days relative to control; format: functional; conditions: route intraperitoneal
[3] = Selectivity index, ratio of CC50 for HFF cells to EC50 for Vaccinia virus WR infected HFF cells; format: functional
[4] = Selectivity index, ratio of CC50 for HFF cells to EC50 for Vaccinia virus Copenhagen infected HFF cells; format: functional
Mus musculus [5] = test: Effect on mortality of A/NCr mouse inoculated with 41 PFU ectromelia virus at 100 mg/kg after 4 hrs of viral infection, ip once daily for 14 days; format: functional; conditions: route intraperitoneal
Mus musculus [6] = test: Effect on mortality of A/NCr mouse inoculated with ectromelia virus at 100 mg/kg after 24 hrs of viral infection, ip once daily for 10 days relative control; format: functional; conditions: route intraperitoneal
Mus musculus [7] = test: Effect on mortality of BALB/c mouse inoculated with Cowpox virus BR at 50 mg/kg after 24 hrs of viral infection, po for 9 days; format: functional, organism-based; parameters: dose 50 mg/kg
Vaccinia virus [8] = test: Reduction of Vaccinia virus WR replication in BALB/c mouse spleen at 15 mg/kg after 24 hrs of viral infection, ip for 5 days; format: functional, organism-based; parameters: dose 15 mg/kg; conditions: Orthopoxvirus vaccinia
Mus musculus [9] = test: Effect on mortality of A/NCr mouse inoculated with 4.1 PFU ectromelia virus at 100 mg/kg after 4 hrs of viral infection, ip once daily for 14 days; format: functional; conditions: route intraperitoneal
Mus musculus [10] = test: Effect on mortality of A/NCr mouse inoculated with 4100 PFU ectromelia virus at 100 mg/kg after 4 hrs of viral infection, ip once daily for 14 days; format: functional; conditions: route intraperitoneal
Vaccinia virus [11] = test: Reduction of Vaccinia virus WR replication in BALB/c mouse liver at 15 mg/kg after 24 hrs of viral infection, ip for 5 days; format: functional, organism-based; parameters: dose 15 mg/kg; conditions: Orthopoxvirus vaccinia
Mus musculus [12] = test: Effect on mortality of BALB/c mouse inoculated with Cowpox virus at 15 mg/kg after 24 hrs of viral infection, ip once daily for 5 days relative to control; format: functional; conditions: route intraperitoneal
[13] = Selectivity index, ratio of CC50 for HFF cells to EC50 for Cowpox virus Brighton infected HFF cells; format: functional
Mus musculus [14] = test: Effect on mortality of BALB/c mouse inoculated with Cowpox virus at 15 mg/kg after 4 hrs of viral infection, ip once daily for 5 days relative to control; format: functional; conditions: route intraperitoneal
Mus musculus [15] = test: Effect on mortality of A/NCr mouse inoculated with ectromelia virus at 100 mg/kg after 72 hrs of viral infection, ip once daily for 10 days relative control; format: functional; conditions: route intraperitoneal
Cowpox virus [16] = test: Reduction of Cowpox virus BR replication in BALB/c mouse liver at 15 mg/kg after 24 hrs of viral infection, ip for 5 days; format: functional, organism-based; parameters: dose 15 mg/kg
Mus musculus [17] = test: Effect on mortality of BALB/c mouse inoculated with Cowpox virus at 15 mg/kg after 48 hrs of viral infection, ip once daily for 5 days relative to control; format: functional; conditions: route intraperitoneal
Mus musculus [18] = test: Effect on mortality of A/NCr mouse inoculated with ectromelia virus at 100 mg/kg after 0 hrs of viral infection, ip once daily for 10 days relative control; format: functional; conditions: route intraperitoneal
Mus musculus [19] = test: Effect on mortality of A/NCr mouse inoculated with 410 PFU ectromelia virus at 100 mg/kg after 4 hrs of viral infection, ip once daily for 14 days; format: functional; conditions: route intraperitoneal
[20] = Cytotoxicity against HFF cells; format: cell-based; conditions: human
Mus musculus [21] = test: Effect on mortality of BALB/c mouse inoculated with Vaccinia virus WR at 15 mg/kg after 24 hrs of viral infection, ip for 5 days relative to control; format: functional; conditions: route intraperitoneal
Cowpox virus [22] = test: Reduction of Cowpox virus BR replication in BALB/c mouse kidney at 15 mg/kg after 24 hrs of viral infection, ip for 5 days; format: functional, organism-based; parameters: dose 15 mg/kg
Vaccinia virus [23] = test: Reduction of Vaccinia virus WR replication in BALB/c mouse kidney at 15 mg/kg after 24 hrs of viral infection, ip for 5 days; format: functional, organism-based; parameters: dose 15 mg/kg; conditions: Orthopoxvirus vaccinia
Mus musculus [24] = test: Effect on mortality of BALB/c mouse inoculated with Cowpox virus at 15 mg/kg after 72 hrs of viral infection, ip once daily for 5 days relative to control; format: functional; conditions: route intraperitoneal
Cowpox virus [25] = test: Reduction of Cowpox virus BR replication in BALB/c mouse spleen at 15 mg/kg after 24 hrs of viral infection, ip for 5 days; format: functional, organism-based; parameters: dose 15 mg/kg

Nc1ccn(C[C@@H](CO)OCP(=O)(O)O)c(=O)n1.O.O [CIDOFOVIR]
active: Activity (Mus musculus [7]) | Activity (Vaccinia virus [8]) | Activity (Vaccinia virus [11]) | Activity (Cowpox virus [16]) | Activity (Cowpox virus [22]) | Activity (Vaccinia virus [23]) | Activity (Cowpox virus [25])
0%: Activity (Mus musculus [1]) | Activity (Mus musculus [2]) | Activity (Mus musculus [6]) | Activity (Mus musculus [9]) | Activity (Mus musculus [10]) | Activity (Mus musculus [12]) | Activity (Mus musculus [14]) | Activity (Mus musculus [15]) | Activity (Mus musculus [17]) | Activity (Mus musculus [18]) | Activity (Mus musculus [19]) | Activity (Mus musculus [24])
7%: Activity (Mus musculus [21])
>10.9: Ratio CC50/EC50 [4]
> 317 µM: CC50 [20]
40%: Activity (Mus musculus [5])
>7.7: Ratio CC50/EC50 [13]
>9.6: Ratio CC50/EC50 [3]
